Measured values taken from patent US8906868B2, “Aminoglycoside derivatives” (Rempex Pharmaceuticals, Inc., priority 2010, dated 2014).
In brackets after ≈: the same amount, converted by molar mass. Like-named read-outs stand apart in the source and are kept apart here.

Key:
[1] = system: EC1002 aph(3′)-IV; assay: organism not typed; assay type: cell-based; details: read-out: Compound MIC on Bacterial Strains: EC1002 aph(3′)-IV
Procedure: (§1) To compare microbiological activity of the test compounds, minimum inhibitory concentrations (MIC.s) were determined. Antibiotic MICs were obtained using the broth microdilution method according to Clinical and Laboratory Standards Institute (CLSI) approved guidelines (Methods for dilution antimicrobial susceptibility tests for bacteria that grow aerobically; approved standard—7th ed. CLSI document M7-A7. Clinical and Laboratory Standards Institute, Wayne, Pa., incorporated herein by reference in its entirety). Antibiotics were dissolved as specified by CLSI (Performance standards for antimicrobial susceptibility testing; Seventeenth informational supplement. CLSI document M100-S17. Clinical and Laboratory Standards Institute, Wayne, Pa., incorporated herein by reference in its entirety), and were serially diluted 2-fold in cation adjusted Mueller Hinton Broth (CaMHB) at 2× concentration. Bacterial inoculums were prepared in CaMHB by suspension of a colony from an agar plate that was prepared the previous day to obtain a final concentration of 5×10^5CFU/ml. The plates were incubated for 18 hours at 35° C. […] MIC.s were determined by reading the turbidity of plate wells using a SpectraMax Plus384 plate reader (Molecular Devices, Sunnyvale, Calif., USA) at 600 nm and were confirmed by visual inspection.
(§2) Activity of the test compounds was determined using QC strains and strains with known aminoglycoside resistance mechanisms (TABLE 3). This specific panel contained strains expressing enzymes that covalently modify N2″, N3 and N3′ positions.

[2] = system: Sa 287 aac(6′) + aph(2″); assay: microbe, parasite or virus in culture; assay type: cell-based, Staphylococcus aureus; details: Staphylococcus aureus, 18 h; Table 5; read-out: Compound MIC on Bacterial Strains: Staphylococcus aureus Sa 287 aac(6′) + aph(2″)
Procedure: as §1

[3] = system: Acinetobacter baumannii (ATCC 19606); assay: MIC, broth microdilution; details: Acinetobacter baumannii, ATCC19606, read-out: Compound MIC on Bacterial Strains: A. baumannii ATCC 19606
[4] = system: ACM1006 acc(6′)-Ib; assay: microbe, parasite or virus in culture; assay type: cell-based, Acinetobacter baumannii; details: Acinetobacter baumannii; Table 4; read-out: Compound MIC on Bacterial Strains: Acinetobacter baumannii ACM1006 acc(6′)-Ib
Procedure: as §1

[5] = system: ECM6011 aph(3′)-I; assay: microbe, parasite or virus in culture; assay type: cell-based, Escherichia coli; details: Escherichia coli, read-out: Compound MIC on Bacterial Strains: ECM6011 aph(3′)-I
Procedure: as §1, §2

[6] = system: ECM6010 ant(2″)-I; assay: microbe, parasite or virus in culture; assay type: cell-based, Escherichia coli; details: Escherichia coli, read-out: Compound MIC on Bacterial Strains: ECM6010 ant(2″)-I
Procedure: as §1, §2

[7] = system: ECM6006 aph(3′)-III; assay: microbe, parasite or virus in culture; assay type: cell-based, Escherichia coli; details: Escherichia coli, read-out: Compound MIC on Bacterial Strains: ECM6006 aph(3′)-III
Procedure: as §1, §2

[8] = system: ECM6009 aac(3)-II; assay: microbe, parasite or virus in culture; assay type: cell-based, Escherichia coli; details: Escherichia coli, read-out: Compound MIC on Bacterial Strains: ECM6009 aac(3)-II
Procedure: as §1, §2

[9] = system: ACM1005 ATCC 19004; assay: MIC, broth microdilution; assay type: cell-based, Acinetobacter baumannii; details: Acinetobacter baumannii, ATCC19004; Table 4; read-out: Compound MIC on Bacterial Strains: Acinetobacter baumannii ACM1005 ATCC 19004
Procedure: as §1

[10] = system: Staphylococcus aureus (ATCC 29213); assay: MIC, broth microdilution; details: Staphylococcus aureus
[11] = system: Klebsiella pneumonia (ATCC 43816); assay: MIC, broth microdilution; details: Klebsiella pneumoniae, ATCC43816, read-out: Compound MIC on Bacterial Strains: K. pneumonia ATCC 43816
[12] = system: Pseudomonas aeruginosa (ATCC 27853); assay: MIC, broth microdilution; details: Pseudomonas aeruginosa
[13] = system: ECM6007 aac(6′) + aph(2″); assay: microbe, parasite or virus in culture; assay type: cell-based, Escherichia coli; details: Escherichia coli, 18 h; Table 4; read-out: Compound MIC on Bacterial Strains: Escherichia coli ECM6007 aac(6′) + aph(2″)
Procedure: as §1

[14] = system: EC1001 acc(6′)-Ib; assay: microbe, parasite or virus in culture; assay type: cell-based, Escherichia coli; details: Escherichia coli; Table 4; read-out: Compound MIC on Bacterial Strains: Escherichia coli EC1001 acc(6′)-Ib
Procedure: as §1

[15] = system: Escherichia coli (ATCC 25922); assay: MIC, broth microdilution; details: Escherichia coli
[16] = system: ECM6003 rmtB; assay: microbe, parasite or virus in culture; assay type: cell-based, Escherichia coli; details: Escherichia coli; Table 3; read-out: Compound MIC on Bacterial Strains: ECM6003 rmtB
Procedure: as §1, §2
The panel also contained a strain expressing ribosomal RNA methylase, RmtB.

[17] = system: PAM3073 aac(6′)-I; assay: microbe, parasite or virus in culture; assay type: cell-based, Pseudomonas aeruginosa; details: Pseudomonas aeruginosa, Table 5; read-out: Compound MIC on Bacterial Strains: Pseudomonas aeruginosa PAM3073 aac(6′)-I
Procedure: as §1

[18] = system: PAM3072 aac(6′)-II; assay: microbe, parasite or virus in culture; assay type: cell-based, Pseudomonas aeruginosa; details: Pseudomonas aeruginosa, Table 5; read-out: Compound MIC on Bacterial Strains: Pseudomonas aeruginosa PAM3072 aac(6′)-II
Procedure: as §1

[19] = ATCC29213, read-out: Compound MIC on Bacterial Strains: S. aureus ATCC 29213, QC strain, Table 2
[20] = ATCC29213, read-out: Compound MIC on Bacterial Strains: Staphylococcus aureus SAM1000 ATCC 29213, Table 5
[21] = ATCC27853, read-out: Compound MIC on Bacterial Strains: P. aeruginosa ATCC 27853
[22] = ATCC27853, read-out: Compound MIC on Bacterial Strains: Pseudomonas aeruginosa PAM3034 ATCC 27853
[23] = ATCC25922, read-out: Compound MIC on Bacterial Strains: E. coli ATCC 25922
[24] = ATCC25922, read-out: Compound MIC on Bacterial Strains: ECM6000 ATCC 25922
[25] = ATCC25922, read-out: Compound MIC on Bacterial Strains: Escherichia coli ECM6000 ATCC 25922

Compound	MIC [1] [µg/mL]	MIC [3] [µg/mL]	MIC [4] [µg/mL]	MIC [5] [µg/mL]	MIC [6] [µg/mL]	MIC [7] [µg/mL]	MIC [8] [µg/mL]	MIC [9] [µg/mL]	MIC [10, 19] [µg/mL]	MIC [10, 20] [µg/mL]	MIC [11] [µg/mL]	MIC [12, 21] [µg/mL]	MIC [12, 22] [µg/mL]	MIC [13] [µg/mL]	MIC [14] [µg/mL]	MIC [15, 23] [µg/mL]	MIC [15, 24] [µg/mL]	MIC [15, 25] [µg/mL]	MIC [16] [µg/mL]	MIC [17] [µg/mL]	further results
NCC[C@H](O)C(=O)N[C@@H]1C[C@H](N)[C@@H](O[C@H]2O[C@H](CN)[C@@H](O)[C@H](O)[C@H]2O)[C@H](O)[C@H]1O[C@H]1O[C@H](CO)[C@@H](O)[C@H](N)[C@H]1O [Amikacin, reference compound]	> 8	1 to 8 (≈ 1.71 to 13.7 µM)	1 to 8 (≈ 1.71 to 13.7 µM)	1 to 8 (≈ 1.71 to 13.7 µM)	1 to 8 (≈ 1.71 to 13.7 µM)	1 to 8 (≈ 1.71 to 13.7 µM)	< 1	< 1	1 to 8 (≈ 1.71 to 13.7 µM)	< 1	< 1	1 to 8 (≈ 1.71 to 13.7 µM)	1 to 8 (≈ 1.71 to 13.7 µM)	< 1	> 8	1 to 8 (≈ 1.71 to 13.7 µM)	1 to 8 (≈ 1.71 to 13.7 µM)	1 to 8 (≈ 1.71 to 13.7 µM)	> 8	–	MIC [2]: > 8 µg/mL
CN[C@@H]1C(O)[C@@H](OC2C(O)C(O[C@H]3O[C@H](CNCCO)CCC3N)[C@@H](N)C[C@H]2NC(=O)[C@@H](O)[C@@H](O)CN)OCC1(C)O (some centres unmarked) [Compound 4]	1 to 8 (≈ 1.64 to 13.1 µM)	–	–	< 1	1 to 8 (≈ 1.64 to 13.1 µM)	1 to 8 (≈ 1.64 to 13.1 µM)	< 1	–	–	1 to 8 (≈ 1.64 to 13.1 µM)	–	–	1 to 8 (≈ 1.64 to 13.1 µM)	–	–	–	1 to 8 (≈ 1.64 to 13.1 µM)	–	> 8	1 to 8 (≈ 1.64 to 13.1 µM)	MIC [2]: 1 to 8 µg/mL; MIC [18]: > 8 µg/mL
CN[C@@H]1[C@@H](O)[C@@H](O[C@@H]2[C@@H](O)[C@H](O[C@H]3O[C@H](CNCCF)CC[C@H]3N)[C@@H](N)C[C@H]2NC(=O)[C@@H](O)CN)OC[C@]1(C)O [Compound 46, (S)-3-amino-N-((1R,2S,3S,4R,5S)-5-amino-4-((2R,3R,6S)-3-amino-6-((2-fluoroethylamino)methyl)tetrahydro-2H-pyran-2-yloxy)-2-((2R,3R,4R,5R)-3,5-dihydroxy-5-methyl-4-(methylamino)tetrahydro-2H-pyran-2-yloxy)-3-hydroxycyclohexyl)-2-hydroxypropanamide]	< 1	> 8	1 to 8 (≈ 1.72 to 13.7 µM)	< 1	< 1	< 1	< 1	1 to 8 (≈ 1.72 to 13.7 µM)	< 1	< 1	< 1	1 to 8 (≈ 1.72 to 13.7 µM)	1 to 8 (≈ 1.72 to 13.7 µM)	< 1	1 to 8 (≈ 1.72 to 13.7 µM)	< 1	< 1	< 1	> 8	1 to 8 (≈ 1.72 to 13.7 µM)	MIC [18]: > 8 µg/mL
CN[C@@H]1[C@@H](O)[C@@H](O[C@@H]2[C@@H](O)[C@H](O[C@H]3O[C@H](CNCC(O)CO)CC[C@H]3N)[C@@H](N)C[C@H]2NC(=O)[C@@H](O)CCN)OC[C@]1(C)O (stereo partly drawn) [Compound 8, (2S)-4-amino-N-((1R,2S,3S,4R,5S)-5-amino-4-((2R,3R,6S)-3-amino-6-((2,3-dihydroxypropylamino)methyl)tetrahydro-2H-pyran-2-yloxy)-2-((2R,3R,4R,5R)-3,5-dihydroxy-5-methyl-4-(methylamino)tetrahydro-2H-pyran-2-yloxy)-3-hydroxycyclohexyl)-2-hydroxybutanamide]	< 1	> 8	1 to 8 (≈ 1.6 to 12.8 µM)	< 1	< 1	1 to 8 (≈ 1.6 to 12.8 µM)	< 1	1 to 8 (≈ 1.6 to 12.8 µM)	< 1	< 1	< 1	1 to 8 (≈ 1.6 to 12.8 µM)	1 to 8 (≈ 1.6 to 12.8 µM)	< 1	< 1	< 1	< 1	< 1	> 8	1 to 8 (≈ 1.6 to 12.8 µM)	MIC [18]: > 8 µg/mL
